The results in this text go back to ChEMBL document CHEMBL5233249, “Recent advancements in the development of heterocyclic anti-inflammatory agents” (Eur J Med Chem, 2020).

Broadly, the pIC50 is the negative decadic logarithm of the IC50, by convention in mol/L. What is called inhibition in vivo is how much of the control response was suppressed. What is called IC50 is the concentration at which inhibition is half-maximal. As a reminder, the inhibition is the share of the control response that was lost under treatment. As usually defined, the ED50 is the dose that gives a 50% effect, or the effect in half of the subjects.

pIC50: −log10 of the molar value. Values after ≈ are worked out from the molar mass of the structure shown.

The nature of assay [1]: Anti-inflammatory activity assessed as heat -induced protein denaturation using hen egg albumin at 31.25 ug/ml relative to control. In kind it is functional. The following applies: dose 31.25 µg/ml.
The target of assay [2] is T1, Prostaglandin G/H synthase 2 (Homo sapiens, UniProt P35354).
T1 sequence (P35354 whole entry): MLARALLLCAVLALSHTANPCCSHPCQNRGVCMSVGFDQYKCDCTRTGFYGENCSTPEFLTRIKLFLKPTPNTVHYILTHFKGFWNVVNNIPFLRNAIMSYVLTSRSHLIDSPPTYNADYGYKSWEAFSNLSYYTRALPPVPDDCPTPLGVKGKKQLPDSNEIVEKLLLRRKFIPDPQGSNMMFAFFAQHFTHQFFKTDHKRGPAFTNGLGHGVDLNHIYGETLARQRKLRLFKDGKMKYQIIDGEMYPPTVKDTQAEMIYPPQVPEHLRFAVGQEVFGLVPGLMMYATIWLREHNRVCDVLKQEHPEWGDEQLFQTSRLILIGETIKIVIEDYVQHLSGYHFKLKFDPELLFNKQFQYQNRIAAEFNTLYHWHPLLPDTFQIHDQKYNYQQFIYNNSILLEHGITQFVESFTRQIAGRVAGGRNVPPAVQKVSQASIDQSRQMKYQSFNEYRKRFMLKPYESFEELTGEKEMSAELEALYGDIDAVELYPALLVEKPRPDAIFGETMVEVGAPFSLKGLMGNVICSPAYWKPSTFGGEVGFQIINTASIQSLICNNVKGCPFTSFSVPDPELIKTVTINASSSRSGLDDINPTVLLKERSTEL
In words: Inhibition of human COX-2 assessed as by fluorescence based microplate reader assay.

The test system of assay [3] is Rattus norvegicus. As to the kind of experiment: Anti-inflammatory activity in Carrageenan-induced paw edema in Wistar albino rat assessed as inhibition of edema measured after 1 hr relative to control. More on the design: scale not given: the % may be the effect or the level left. The format is functional. (The carrageenan paw model is a standard test of acute inflammation.)

In assay [4] the test system is Rattus norvegicus. As to the kind of experiment: Anti-inflammatory activity in Carrageenan-induced paw edema in Wistar albino rat assessed as inhibition of edema measured after 3 hr relative to control. The format is functional. More on the design: scale not given: the % may be the effect or the level left.
The test system of assay [5] is Rattus norvegicus. As to the kind of experiment: Anti-inflammatory activity in Carrageenan-induced paw edema in Wistar albino rat assessed as inhibition of edema measured after 5 hr relative to control. The format is functional. More on the design: scale not given: the % may be the effect or the level left.
In assay [6] the test system is Rattus norvegicus. In words: Anti-inflammatory activity against Carrageenan-induced paw edema in PO dosed Wistar albino rat assessed as reduction in hind paw edema volume at 20 mg/kg relative to control. More on the design: scale not given: the % may be the effect or the level left. The format is functional.
The subject of assay [7] is Rattus norvegicus. In words: Anti-inflammatory activity in Carrageenan-induced paw edema in PO dosed rat model at 10 mg/kg assessed as inhibition of paw edema measured after 4 hrs relative to control. The format is functional.
The subject of assay [8] is Rattus norvegicus. In words: Anti-inflammatory activity in Carrageenan-induced paw edema in PO dosed rat model at 20 mg/kg assessed as inhibition of paw edema measured after 4 hrs relative to control. The format is functional.
Assay [9] deals with Rattus norvegicus. In words: Anti-inflammatory activity against formalin-induced foot paw edema in PO dosed rat at 10 mg/kg assessed as inhibition of edema measured after 1 hr relative to control. The format is functional. More on the design: scale not given: the % may be the effect or the level left.
The subject of assay [10] is Mus musculus. As to the kind of experiment: Analgesic activity in PO dosed Swiss albino mouse assessed as protection of paw edema measured after 2 hrs at 20 mg/kg relative to control. The format is functional.
Assay [11] concerns Mus musculus. As to the kind of experiment: Anti-inflammatory activity in Carrageenan-induced paw edema mouse model assessed as inhibition of granuloma measured after 24 hrs relative to control. The format is functional.
The subject of assay [12] is Rattus norvegicus. In words: Anti-inflammatory activity against formalin-induced foot paw edema in Wistar rat at 5 mg/kg, po assessed as inhibition of edema measured after 4 hr relative to control. The format is functional.
The test system of assay [13] is Rattus norvegicus. As to the kind of experiment: Ulcerogenic activity in Swiss albino Wistar rat assessed as ulcer lesion score at 100 mg/kg, po. In kind it is functional.
In assay [14] the test system is Rattus norvegicus. As to the kind of experiment: Anti-inflammatory activity in Carrageenan-induced paw edema in PO dosed Swiss albino rat model at 10 mg/kg assessed as inhibition in volume of edema measured after 1 hrs relative to control. The format is functional.
Assay [15] in a line: Anti-inflammatory activity assessed using bovine serum albumin/egg albumin proteins assessed as protein denaturation measured at 95 degC for 20 mins by measuring turbidity by UV-Vis spectrophotometer. In kind it is functional.
In assay [16] the test system is Erythrocyte. In words: Anti-inflammatory activity in rat red blood cells assessed as stabilization of cell membrane at 200 microg/ml relative to control. In kind it is functional. The following applies: dose 200 µg/ml.
Assay [17] concerns Erythrocyte. As to the kind of experiment: Anti-inflammatory activity in rat red blood cells assessed as stabilization of cell membrane at 500 microg/ml relative to control. In kind it is functional. The following applies: dose 500 µg/ml.
Assay [18] has as its target T2, Prostaglandin G/H synthase 1 (Ovis aries, UniProt P05979).
T2 sequence (P05979 whole entry): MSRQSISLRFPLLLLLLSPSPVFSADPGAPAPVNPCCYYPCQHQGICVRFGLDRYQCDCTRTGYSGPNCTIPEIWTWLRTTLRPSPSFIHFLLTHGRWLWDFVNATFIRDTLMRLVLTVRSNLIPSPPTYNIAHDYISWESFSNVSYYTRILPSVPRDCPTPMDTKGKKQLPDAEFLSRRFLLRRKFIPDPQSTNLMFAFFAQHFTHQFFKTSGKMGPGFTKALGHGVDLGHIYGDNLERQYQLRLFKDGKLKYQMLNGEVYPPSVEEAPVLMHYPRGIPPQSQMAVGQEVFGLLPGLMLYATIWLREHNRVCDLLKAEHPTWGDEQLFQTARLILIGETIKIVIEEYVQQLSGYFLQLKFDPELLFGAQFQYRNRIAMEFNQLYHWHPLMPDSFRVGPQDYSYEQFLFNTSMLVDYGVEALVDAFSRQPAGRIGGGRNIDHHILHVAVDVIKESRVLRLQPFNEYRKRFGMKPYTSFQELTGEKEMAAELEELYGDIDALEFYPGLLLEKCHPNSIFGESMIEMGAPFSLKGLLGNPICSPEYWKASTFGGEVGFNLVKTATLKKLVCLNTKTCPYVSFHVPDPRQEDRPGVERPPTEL
As to the kind of experiment: Inhibition of ovine COX-1 by EIA method.

Assay [19] addresses Prostaglandin G/H synthase 1 (Homo sapiens, UniProt P23219). As to the kind of experiment: Inhibition of COX-1 (unknown origin) at 40 uM relative to control.
In assay [20] the test system is Rattus norvegicus. In words: Anti-inflammatory activity in Carrageenan-induced rat paw edema in Wistar rat assessed as increase in paw edema volume (reference value: 1.66 +/- 0.01). The format is functional.
For assay [21], the system named is Rattus norvegicus. As to the kind of experiment: Anti-inflammatory activity in Carrageenan-induced rat paw edema in Wistar rat assessed as increase in paw edema volume relative to control. In kind it is functional.
Assay [22] relates to Rattus norvegicus. As to the kind of experiment: Anti-inflammatory activity in Carrageenan-induced rat paw edema in Wistar rat assessed as increase in paw edema volume at 1 hr. The format is functional.
The test system of assay [23] is Rattus norvegicus. In words: Anti-inflammatory activity in Carrageenan-induced rat paw edema in Wistar rat assessed as increase in paw edema volume at 1 hr relative to control. The format is functional.
The subject of assay [24] is Rattus norvegicus. As to the kind of experiment: Anti-inflammatory activity in Carrageenan-induced rat paw edema in Wistar rat assessed as increase in paw edema volume at 2 hr. In kind it is functional.
The test system of assay [25] is Rattus norvegicus. In words: Anti-inflammatory activity in Carrageenan-induced rat paw edema in Wistar rat assessed as increase in paw edema volume at 2 hr relative to control. The format is functional.
The subject of assay [26] is Rattus norvegicus. As to the kind of experiment: Anti-inflammatory activity in Carrageenan-induced rat paw edema in Wistar rat assessed as increase in paw edema volume at 4 hr. In kind it is functional.
In assay [27] the test system is Rattus norvegicus. As to the kind of experiment: Anti-inflammatory activity in Carrageenan-induced rat paw edema in Wistar rat assessed as increase in paw edema volume at 4 hr relative to control. In kind it is functional.
Assay [28] concerns Rattus norvegicus. In words: Anti-inflammatory activity in Carrageenan-induced paw edema in Wistar rat assessed as inhibition of paw edema. The format is functional.
Assay [29] deals with Rattus norvegicus. In words: Anti-inflammatory activity in Carrageenan-induced paw edema in Swiss albino rat assessed as inhibition relative to control. The format is functional.

Prostaglandin G/H synthase 1 (Homo sapiens, UniProt P23219), sequence (P23219 whole entry): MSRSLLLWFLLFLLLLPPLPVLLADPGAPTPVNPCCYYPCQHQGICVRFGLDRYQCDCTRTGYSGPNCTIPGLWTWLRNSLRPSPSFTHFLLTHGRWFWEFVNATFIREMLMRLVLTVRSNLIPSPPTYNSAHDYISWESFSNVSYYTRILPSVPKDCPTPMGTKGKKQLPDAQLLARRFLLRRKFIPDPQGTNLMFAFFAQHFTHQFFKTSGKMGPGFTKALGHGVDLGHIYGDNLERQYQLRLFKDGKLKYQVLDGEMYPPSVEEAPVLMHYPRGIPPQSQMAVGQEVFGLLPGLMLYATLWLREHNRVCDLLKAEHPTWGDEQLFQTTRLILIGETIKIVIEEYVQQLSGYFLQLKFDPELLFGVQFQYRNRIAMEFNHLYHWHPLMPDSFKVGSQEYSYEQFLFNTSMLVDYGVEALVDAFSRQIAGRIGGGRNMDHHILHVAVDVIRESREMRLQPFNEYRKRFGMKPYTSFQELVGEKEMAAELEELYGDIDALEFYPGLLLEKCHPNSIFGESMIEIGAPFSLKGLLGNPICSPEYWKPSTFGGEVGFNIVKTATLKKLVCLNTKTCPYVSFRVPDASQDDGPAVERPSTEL

Consider `COc1ccc2oc(=O)cc(COc3ccc4ccccc4c3/C=N/c3c(C)n(C)n(-c4ccccc4)c3=O)c2c1`, for which, in assay [1], the Activity came out at 53.6%.
For `CCOc1cc(C)nn1C(=O)CNc1ncnc2c1c(C)nn2-c1ccccc1`, in [2], the negative-log IC50 (pIC50) is 6.80. Further, the Activity in [3] was found to be 82%; in [4], 94%; in [5], 90%.
On to `O=C1/C(=N\Nc2ccccc2Br)C(Nc2ccccc2F)=NN1CNc1ccccc1`, for which the Activity in assay [6] came out at 64%.
With `Cc1nn(-c2ccccc2)c2c1C(c1ccccc1Cl)N1C=CC=NC1=N2` (centres undefined), the inhibition in vivo at 10 mg/kg in assay [7] turned out to be 73%. The inhibition in vivo at 20 mg/kg in assay [8] was found to be 86%.
Regarding `O=C(O)Cc1ccccc1Nc1c(Cl)cccc1Cl` [DICLOFENAC], the Activity in assay [9] was determined as 30.43%; in assay [10], 65%; in assay [13] it was 32.5 mm. Besides, the “inhibition (INH)” value in assay [11] turned out to be 36.1%. Further, the inhibition in vivo at 5 mg/kg in assay [12] was found to be 50%.
In the case of `Cc1c(-c2ccccc2)n(C(=O)c2ccccc2)c2ccc(S(C)(=O)=O)cc12`, the inhibition in vivo at 10 mg/kg in [14] came to 73.1%.
Regarding `COc1ccc(-c2nn(-c3ccccc3)cc2CCC(=O)OCc2cn(-c3cccc(Cl)c3)nn2)cc1`, the IC50 in [15] stood at 60.56 µg/mL (≈ 118 µM). The results for the Activity in assay [16] and in assay [17] were 70% and 94%, respectively.
With `CCCOC(=O)c1nc2c(cnn2-c2ccccc2)c(=O)[nH]1`, in assay [18], the pIC50 is 4.71. In assay [19], this compound came in with an inhibition of 86%. The Activity in [20] came out at 0.9 mL; in assay [22], 1.66 mL; in assay [24] it was 1.8 mL; in [26] it was 2.11 mL. Moreover, the “inhibition (INH)” value in [21] is on record as 40%; in assay [23], 40%; in [25], 51%; in [27], 55%; in assay [29], 36%. Besides, the ED50 in assay [28] was 8.3 mg/kg.
For the compound `CSc1nn(-c2ccc(S(C)(=O)=O)cc2)c2ncnc(NCC(=O)/N=C/c3ccco3)c12`, the negative-log IC50 (pIC50) in assay [18] was 3.91; in assay [2], 7.00. Further, the Activity turned out to be 2% in assay [3], 79% in assay [4] and 88% in assay [5].
